Results on eight compounds are retold here after ChEMBL document CHEMBL3804762, “Novel indoleflutimide heterocycles with activity against influenza PA endonuclease and hepatitis C virus” (Medchemcomm, 2016).

The term EC50 denotes the concentration giving half of the maximal effect. What is called pKa is the negative logarithm of the acid dissociation constant. High values mean a group that holds its proton tightly, low ones a group that gives up its proton readily. Usually logD stands for the decadic logarithm of the distribution of all forms, ionised or not, between an organic phase and buffer at a given pH. A low value points to lower lipophilicity. Usually IC50 stands for the point on the concentration scale where inhibition reaches its midpoint.

In data set [1] the target is T1, Polymerase acidic protein (Influenza A virus (strain A/X-31 H3N2), UniProt Q9IQ47). Description: Inhibition of recombinant Influenza A/X-31 virus PA infected in HEK293T cells after 2 hrs by vRNP reconstitution assay. The data set is classed as cell-based, Influenza A virus (A/X-31(H3N2)), HEK-293T.
Data set [2] deals with Hepatitis C virus. Kind of data set: Antiviral activity against HCV Con1 infected in human Huh5-2 cells haboring firefly luciferase expressing subgenomic replicon of HCV genotype 1b after 72 hrs by luciferase reporter gene assay. Particulars: isolate Con1, Huh-5-2, 72 h. It counts as functional, organism-based, Hepacivirus hominis. For orientation: Replicon systems follow genome replication, usually without infectious particles.

Data set [3] can be described thus: Dissociation constant, pKa of compound. It counts as physicochemical.
Data set [4] can be described thus: Lipophilicity, log D of compound. It counts as physicochemical. Particulars: octanol/water.
Data set [5] in a line: Selectivity index, ratio of LC50 for human Huh5-2 cells to EC50 for HCV Con1 infected in human Huh5-2 cells haboring firefly luciferase expressing subgenomic replicon of HCV genotype 1b. Also noted: species or system Huh-5-2.
In data set [6] the target is T1, Polymerase acidic protein. Kind of data set: Inhibition of recombinant Influenza A/X-31 virus PA (N-terminal amino acid residue 1-217) transfected in Escherichia coli assessed as endonucleolytic digestion using single-stranded circular DNA plasmid M13mp18 after 2 hrs by ethidium bromide staining based agarose gel electrophoresis. Also noted: species or system Influenza A virus (A/X-31(H3N2)).

A short description of data set [7]: Cytotoxicity against human Huh5-2 cells assessed as cell viability after 72 hrs by Alamar blue dye based colorimetric analysis. Also noted: species or system Huh-5-2. Particulars: read-out: LC50. On the technique in general: The colour change of resazurin is a common sign of viable cells or microbes.
Data set [8] in a line: Cytotoxicity against HEK293T cells assessed as effect on cell morphology after 24 hrs by microscopic analysis. The data set is classed as cell-based, HEK-293T. Particulars: human.
In data set [9] the target is Polymerase acidic protein (Influenza A virus (A/Puerto Rico/8/1934(H1N1)), UniProt P03433). Description: Inhibition of Influenza A/PR/8/34 virus PA endonuclease by cap dependent RNA polymerase assay.
In data set [10] the target is T2, Nonstructural protein 5A (Hepatitis C virus) (UniProt Q5L478).
T2 sequence (whole entry): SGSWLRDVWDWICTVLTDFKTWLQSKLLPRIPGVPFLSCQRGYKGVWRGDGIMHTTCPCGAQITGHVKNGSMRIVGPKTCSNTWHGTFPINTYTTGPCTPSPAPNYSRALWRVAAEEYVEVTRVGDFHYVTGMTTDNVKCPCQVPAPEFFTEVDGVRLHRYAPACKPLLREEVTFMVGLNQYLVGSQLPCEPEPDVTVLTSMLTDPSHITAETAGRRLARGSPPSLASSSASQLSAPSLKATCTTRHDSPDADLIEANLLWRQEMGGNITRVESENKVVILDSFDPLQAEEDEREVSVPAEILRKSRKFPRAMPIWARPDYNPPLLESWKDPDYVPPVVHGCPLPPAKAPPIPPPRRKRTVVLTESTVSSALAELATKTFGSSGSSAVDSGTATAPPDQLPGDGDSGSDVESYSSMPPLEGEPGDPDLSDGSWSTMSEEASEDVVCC
Kind of data set: Inhibition of HCV NS5A in Huh5-2 replicon cells at 100 uM propidium iodide staining based confocal microscopic analysis. The data set is classed as cell-based. Particulars: Hepacivirus hominis.

The subject of data set [11] is Hepatitis C virus. Description: Antiviral activity against HCV Con1 infected in human Huh5-2 cells haboring firefly luciferase expressing subgenomic replicon of HCV genotype 1b at 100 uM after 7 days by luciferase reporter gene assay. The data set is classed as functional, organism-based. Particulars: Hepacivirus hominis, isolate Con1, Huh-5-2.

Calls of active or inactive are those of the source. No cut-off for these calls is given here. A value given as a limit tells only on which side of the number the result lay.

Consider `O=C1Cn2c(cc3cc(F)ccc32)C(=O)N1O`, for which the EC50 is over 500 µM in data set [1] and 83.8 µM in the data set on Hepatitis C virus [2]. In addition, the pKa in data set [3] was 7.27. The compound also came in with a logD in data set [4] of 0.71. In addition, the “Selectivity Index” value in data set [5] is over 2.4. The IC50 in data set [6] was 17.3 µM. For the same compound, the CC50 at 72 h in [7] was over 200 µM. Also, in data set [8], the MCC at 24 h is at least 500 µM.

Turning to `COc1ccc2c(c1)cc1n2CC(=O)N(O)C1=O`, the EC50 is 48 µM in data set [1] and over 200 µM in the data set with Hepatitis C virus [2]. The compound also gave a pKa in data set [3] of 7.27. The same compound displayed a logD in data set [4] of 0.41. In data set [6], the IC50 was 23 µM. Moreover, in data set [7], the CC50 at 72 h was over 200 µM. In addition, the MCC at 24 h in [8] was at least 500 µM.

On to `O=C1Cn2c(cc3ccccc32)C(=O)N1O`, for which the figures for the EC50 (in data set [1]; in the data set with Hepatitis C virus [2]) were 297 µM and 126 µM, respectively. The pKa in [3] is 7.27. In addition, in data set [4], the logD was 0.57. In addition, the “Selectivity Index” value in data set [5] is over 1.6. In addition, the IC50 in [6] was 12.7 µM. Also, the CC50 at 72 h in data set [7] was over 200 µM. Moreover, the MCC at 24 h in data set [8] was at least 500 µM.

In the case of `O=C1Cc2ccccc2CC(=O)N1O`, the IC50 in [9] was over 500 µM.

Compound `O=C(O)C(=O)CC(=O)c1ccccc1` registered an EC50 in the data set on Hepatitis C virus [2] of over 200 µM. The compound also had a pKa in data set [3] of 2.85. In data set [4], the logD was -1.73. Further, the IC50 in data set [6] was determined as 5.4 µM. Besides, the CC50 at 72 h in data set [7] was over 200 µM.

Consider `O=C1Cn2c(cc3cc(O)ccc32)C(=O)N1O`, for which the EC50 in data set [1] was 75 µM; with Hepatitis C virus [2], over 200 µM. This compound also had a pKa in [3] of 7.27. The same compound showed a logD in data set [4] of 0.26. Besides, the IC50 in [6] worked out at 29.2 µM. Besides, the CC50 at 72 h in data set [7] is over 200 µM. Further, the MCC at 24 h in data set [8] was at least 500 µM.

Regarding `O=C1Cn2c(cc3cc(Cl)ccc32)C(=O)N1O`, the EC50 in data set [1] was determined as 114 µM; with Hepatitis C virus [2] it was 10.5 µM. The compound further gave a pKa in data set [3] of 7.27. The logD in [4] came out at 1.17. Besides, in data set [10], the inhibition entry is “Active”. In addition, the “Selectivity Index” value in [5] is listed as over 19.1. Besides, in data set [6], the IC50 came out at 26.9 µM. In [7], the CC50 at 72 h was over 200 µM. Further, in data set [8], the MCC at 24 h was at least 500 µM. In addition, in the data set on Hepatitis C virus [11], the result was inactive.

For `O=C1Cn2c(cc3ccccc32)C(=O)N1`, the EC50 in the data set with Hepatitis C virus [2] was over 200 µM. This compound also displayed a pKa in [3] of 9.3. The logD in data set [4] amounted to 0.75. Besides, the IC50 in [6] is over 500 µM. The CC50 at 72 h in data set [7] is over 200 µM.
